Measurements from ChEMBL document CHEMBL3045439, “Isoforms of the heteropteran Nezara viridula ecdysone receptor: protein characterisation, RH5992 insecticide binding and homology modelling” (Pest Manag Sci, 2011).

Assays:
Format in all cases: protein-complex assay
Ecdysone receptor [1] = molecular target: T1, Ecdysone receptor (Lucilia cuprina, UniProt O18531+Q962I5); experiment: Binding affinity to Lucilia cuprina EcR
T1 sequence (O18531 whole entry): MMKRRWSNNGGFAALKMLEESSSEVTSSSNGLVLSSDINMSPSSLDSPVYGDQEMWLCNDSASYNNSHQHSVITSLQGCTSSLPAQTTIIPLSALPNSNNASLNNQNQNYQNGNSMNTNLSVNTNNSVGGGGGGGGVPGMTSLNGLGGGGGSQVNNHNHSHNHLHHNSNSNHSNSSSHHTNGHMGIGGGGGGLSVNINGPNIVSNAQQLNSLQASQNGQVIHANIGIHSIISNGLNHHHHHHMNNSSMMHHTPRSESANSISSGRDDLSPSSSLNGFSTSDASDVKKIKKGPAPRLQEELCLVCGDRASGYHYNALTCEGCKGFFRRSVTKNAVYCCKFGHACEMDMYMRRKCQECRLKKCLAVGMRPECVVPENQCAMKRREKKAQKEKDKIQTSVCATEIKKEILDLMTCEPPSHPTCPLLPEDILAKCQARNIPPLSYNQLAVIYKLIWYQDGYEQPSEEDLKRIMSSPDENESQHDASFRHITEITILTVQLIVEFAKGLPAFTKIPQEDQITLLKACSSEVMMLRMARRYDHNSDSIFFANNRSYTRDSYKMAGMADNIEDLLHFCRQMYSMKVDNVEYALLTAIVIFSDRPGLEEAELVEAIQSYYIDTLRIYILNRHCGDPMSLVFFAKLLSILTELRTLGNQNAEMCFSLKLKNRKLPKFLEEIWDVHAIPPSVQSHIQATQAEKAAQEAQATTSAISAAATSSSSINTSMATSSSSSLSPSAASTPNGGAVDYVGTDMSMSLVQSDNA
T1 sequence (Q962I5 whole entry): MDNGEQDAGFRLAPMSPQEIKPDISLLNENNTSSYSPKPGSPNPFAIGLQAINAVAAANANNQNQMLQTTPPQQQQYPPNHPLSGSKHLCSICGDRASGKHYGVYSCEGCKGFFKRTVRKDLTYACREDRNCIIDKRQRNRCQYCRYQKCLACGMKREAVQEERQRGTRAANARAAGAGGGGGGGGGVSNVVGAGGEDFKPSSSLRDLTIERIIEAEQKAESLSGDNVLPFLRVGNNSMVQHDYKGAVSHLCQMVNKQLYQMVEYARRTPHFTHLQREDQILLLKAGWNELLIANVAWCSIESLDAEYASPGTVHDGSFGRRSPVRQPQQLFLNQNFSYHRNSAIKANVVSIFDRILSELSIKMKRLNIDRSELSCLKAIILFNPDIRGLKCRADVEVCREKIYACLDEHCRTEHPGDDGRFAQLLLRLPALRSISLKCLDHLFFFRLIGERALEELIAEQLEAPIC

Ecdysone receptor [2] = molecular target: T2, Ecdysone receptor (Heliothis virescens, UniProt O18473+Q7SIF6); experiment: Binding affinity to Heliothis virescens (tobacco budworm) EcR
T2 sequence (O18473 whole entry): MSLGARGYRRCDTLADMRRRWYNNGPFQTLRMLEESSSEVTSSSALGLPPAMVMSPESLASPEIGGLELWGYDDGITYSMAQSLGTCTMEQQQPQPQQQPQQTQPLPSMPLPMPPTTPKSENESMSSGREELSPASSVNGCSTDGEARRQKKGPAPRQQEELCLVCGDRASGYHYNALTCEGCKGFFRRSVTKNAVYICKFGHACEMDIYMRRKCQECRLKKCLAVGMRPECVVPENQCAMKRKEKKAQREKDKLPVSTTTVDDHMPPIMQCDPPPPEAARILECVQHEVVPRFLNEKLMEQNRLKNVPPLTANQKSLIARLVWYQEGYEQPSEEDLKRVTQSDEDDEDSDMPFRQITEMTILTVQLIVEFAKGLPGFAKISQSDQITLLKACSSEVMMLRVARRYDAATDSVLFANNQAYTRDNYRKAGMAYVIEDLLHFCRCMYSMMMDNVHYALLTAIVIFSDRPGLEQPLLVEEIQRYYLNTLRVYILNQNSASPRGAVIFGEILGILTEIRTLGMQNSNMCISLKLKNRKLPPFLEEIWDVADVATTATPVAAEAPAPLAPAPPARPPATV
T2 sequence (Q7SIF6 whole entry): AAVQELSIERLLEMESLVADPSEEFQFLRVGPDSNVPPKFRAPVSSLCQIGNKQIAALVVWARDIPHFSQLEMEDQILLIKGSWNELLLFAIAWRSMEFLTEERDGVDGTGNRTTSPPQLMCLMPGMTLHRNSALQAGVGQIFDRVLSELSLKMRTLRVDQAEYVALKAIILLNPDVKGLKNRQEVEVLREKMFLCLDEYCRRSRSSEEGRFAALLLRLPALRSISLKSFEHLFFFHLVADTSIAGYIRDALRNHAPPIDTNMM

Ecdysone receptor [3] = molecular target: T3, Ecdysone receptor (Myzus persicae, UniProt A3EZJ9+A3EZK0); experiment: Binding affinity to Myzus persicae EcR (green peach aphid)
T3 sequence (A3EZJ9 whole entry): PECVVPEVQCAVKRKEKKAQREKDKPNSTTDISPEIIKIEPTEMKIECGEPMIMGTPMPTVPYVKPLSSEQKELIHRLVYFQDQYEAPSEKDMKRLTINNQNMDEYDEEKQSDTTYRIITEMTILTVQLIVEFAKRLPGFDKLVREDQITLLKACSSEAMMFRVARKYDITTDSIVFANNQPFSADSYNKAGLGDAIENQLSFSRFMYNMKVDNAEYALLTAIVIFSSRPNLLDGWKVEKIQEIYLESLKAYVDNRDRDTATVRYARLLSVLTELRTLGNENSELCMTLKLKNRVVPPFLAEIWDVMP
T3 sequence (A3EZK0 whole entry): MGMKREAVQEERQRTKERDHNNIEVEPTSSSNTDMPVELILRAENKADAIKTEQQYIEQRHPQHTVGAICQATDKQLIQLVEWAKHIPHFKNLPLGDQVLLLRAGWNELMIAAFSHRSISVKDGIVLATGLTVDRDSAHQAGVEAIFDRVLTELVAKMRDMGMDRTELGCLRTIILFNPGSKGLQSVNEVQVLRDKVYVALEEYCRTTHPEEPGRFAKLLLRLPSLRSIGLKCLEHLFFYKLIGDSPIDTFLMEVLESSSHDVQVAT

Q: How did the Ki (Ecdysone receptor [1]) turn out when CCc1ccc(C(=O)NN(C(=O)c2cc(C)cc(C)c2)C(C)(C)C)cc1 [TEBUFENOZIDE] was run?
A: The Ki was 158 nM.

Q: And the Ki (Ecdysone receptor [2])?
A: Its Ki is 3.16 nM.

Q: And the Ki (Ecdysone receptor [3])?
A: The Ki was greater than 126000 nM.
